Several values for one entry are separate records, joined by “and”; a condition that tells them apart may be missing. Identical values can stand only once.
System: COR L88 complex tumor spheroid viability
Experiment: Anticancer human tumor COR L88 cell line growth inhibition;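 note: compound exposure lasted 7 days before viability readout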;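 for viability, T/C: percent of DMSO vehicle-treated spheroids = 100%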
Details: for viability, T/C: stronger effect = lower value; active = viability on the fitted dose curve at most 10% of control; inactive = the rest
Method in brief: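 Single agents and combinations were tested on spheroids built from tumor cells plus HUVEC and hMSC, at half-log dilutions starting at or near clinical Cmax, else 10 microM; final DMSO 0.25% (v/v).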

[1] = curve of first compound, second compound 0.003 µM
[2] = second compound 0.003 µM, first compound 0.0316 µM
[3] = second compound 0.003 µM, first compound 0.1 µM
[4] = second compound 0.003 µM, first compound 0.316 µM
[5] = second compound 0.003 µM, first compound 1 µM
[6] = second compound 0.003 µM, first compound 3.16 µM
[7] = second compound 0.003 µM, first compound 10 µM

[2H]c1nc(C)nc([2H])c1-c1cc(NC[C@@H](C)c2cccc3c(C(=O)NC)ccnc23)ncn1 + COc1cc2c(cc1O)CCNC21CSC2c3c(OC(C)=O)c(C)c4c(c3C(COC1=O)N1C(O)C3Cc5cc(C)c(OC)c(O)c5C(C21)N3C)OCO4
inactive: viability, T/C (second compound 30 pM, first compound 0.0316 µM) 98.3% | viability, T/C (second compound 30 pM, first compound 0.1 µM) 98.8% | viability, T/C (second compound 30 pM, first compound 0.316 µM) 96.3% | viability, T/C (second compound 30 pM, first compound 1 µM) 105% | viability, T/C (second compound 30 pM, first compound 3.16 µM) 102% | viability, T/C (second compound 30 pM, first compound 10 µM) 98.3% | viability, T/C (second compound 94.9 pM, first compound 0.0316 µM) 102% | viability, T/C (second compound 94.9 pM, first compound 0.1 µM) 100% | viability, T/C (second compound 94.9 pM, first compound 0.316 µM) 110% | viability, T/C (second compound 94.9 pM, first compound 1 µM) 101% | viability, T/C (second compound 94.9 pM, first compound 3.16 µM) 94.6% | viability, T/C (second compound 94.9 pM, first compound 10 µM) 88% | viability, T/C (second compound 0.0003 µM, first compound 0.0316 µM) 72.8% | viability, T/C (second compound 0.0003 µM, first compound 0.1 µM) 68.8% | viability, T/C (second compound 0.0003 µM, first compound 0.316 µM) 66.9% | viability, T/C (second compound 0.0003 µM, first compound 1 µM) 73.3% | viability, T/C (second compound 0.0003 µM, first compound 3.16 µM) 73.4% | viability, T/C (second compound 0.0003 µM, first compound 10 µM) 69.6% | viability, T/C (second compound 0.000949 µM, first compound 0.0316 µM) 59% | viability, T/C (second compound 0.000949 µM, first compound 0.1 µM) 58.7% | viability, T/C (second compound 0.000949 µM, first compound 0.316 µM) 55.9% | viability, T/C (second compound 0.000949 µM, first compound 1 µM) 57.4% | viability, T/C (second compound 0.000949 µM, first compound 3.16 µM) 50.7% | viability, T/C (second compound 0.000949 µM, first compound 10 µM) 45.8%
4450 nM: IC50 (curve of first compound, second compound 0.000949 µM)
active: viability, T/C [2] 0.64% | viability, T/C [3] 0.73% | viability, T/C [4] 0.53% | viability, T/C [5] 0.45% | viability, T/C [6] 0.55% | viability, T/C [7] 1.03%
< 31.6 nM: IC50 [1]
> 10000 nM: IC50 (curve of first compound, second compound 30 pM) | IC50 (curve of first compound, second compound 94.9 pM) | IC50 (curve of first compound, second compound 0.0003 µM)

CC1COCCN1c1cc(-c2ccnn2C)c2ccnc(-c3ccn[nH]3)c2n1 (configuration not stated) + Cn1nnc2c(C(N)=O)ncn2c1=O
inactive: viability, T/C (second compound 1 µM, first compound 0.0316 µM) 80.7% | viability, T/C (second compound 1 µM, first compound 0.1 µM) 53.9% | viability, T/C (second compound 1 µM, first compound 0.316 µM) 41.1% | viability, T/C (second compound 1 µM, first compound 1 µM) 26.6% | viability, T/C (second compound 1 µM, first compound 3.16 µM) 11.2% | viability, T/C (second compound 3.16 µM, first compound 0.0316 µM) 59% | viability, T/C (second compound 3.16 µM, first compound 0.1 µM) 47.8% | viability, T/C (second compound 3.16 µM, first compound 0.316 µM) 33.9% | viability, T/C (second compound 3.16 µM, first compound 1 µM) 22.4% | viability, T/C (second compound 3.16 µM, first compound 3.16 µM) 11.9% | viability, T/C (second compound 10 µM, first compound 0.0316 µM) 46.1% | viability, T/C (second compound 10 µM, first compound 0.1 µM) 36.3% | viability, T/C (second compound 10 µM, first compound 0.316 µM) 29.4% | viability, T/C (second compound 10 µM, first compound 1 µM) 18.4% | viability, T/C (second compound 10 µM, first compound 3.16 µM) 9.76% | viability, T/C (second compound 31.6 µM, first compound 0.0316 µM) 41.7% | viability, T/C (second compound 31.6 µM, first compound 0.1 µM) 33.8% | viability, T/C (second compound 31.6 µM, first compound 0.316 µM) 24.1% | viability, T/C (second compound 31.6 µM, first compound 1 µM) 16.8% | viability, T/C (second compound 100 µM, first compound 0.0316 µM) 34.3% | viability, T/C (second compound 100 µM, first compound 0.1 µM) 27.8% | viability, T/C (second compound 100 µM, first compound 0.316 µM) 21.5% | viability, T/C (second compound 100 µM, first compound 1 µM) 12.3%
77.4 nM: IC50 (curve of first compound, second compound 3.16 µM)
159 nM: IC50 (curve of first compound, second compound 1 µM)
active: viability, T/C (second compound 1 µM, first compound 10 µM) 5.06% | viability, T/C (second compound 3.16 µM, first compound 10 µM) 4.44% | viability, T/C (second compound 10 µM, first compound 10 µM) 3.5% | viability, T/C (second compound 31.6 µM, first compound 3.16 µM) 7.93% | viability, T/C (second compound 31.6 µM, first compound 10 µM) 3.99% | viability, T/C (second compound 100 µM, first compound 3.16 µM) 6.89% | viability, T/C (second compound 100 µM, first compound 10 µM) 3.01%
< 31.6 nM: IC50 (curve of first compound, second compound 10 µM) | IC50 (curve of first compound, second compound 31.6 µM) | IC50 (curve of first compound, second compound 100 µM)

Cc1cc(C)c(CNC(=O)c2cc(-c3ccc(CN4CCOCC4)cc3)cc3c2cnn3C2CCCC2)c(=O)[nH]1 + CC[C@@]1(O)C(=O)OCc2c1cc1n(c2=O)Cc2cc3c(CN(C)C)c(O)ccc3nc2-1
< 31.6 nM: IC50 (curve of first compound, second compound 0.3 µM)
252 nM: IC50 (curve of first compound, second compound 0.03 µM)
44.1 nM: IC50 (curve of first compound, second compound 0.0949 µM)
8330 nM: IC50 [1]
inactive: viability, T/C [2] 87% | viability, T/C [3] 91.7% | viability, T/C [4] 90.4% | viability, T/C [5] 80.8% | viability, T/C [6] 73.1% | viability, T/C [7] 45.5% | viability, T/C (second compound 0.00949 µM, first compound 0.0316 µM) 76.9% | viability, T/C (second compound 0.00949 µM, first compound 0.1 µM) 81.5% | viability, T/C (second compound 0.00949 µM, first compound 0.316 µM) 83.8% | viability, T/C (second compound 0.00949 µM, first compound 1 µM) 73% | viability, T/C (second compound 0.00949 µM, first compound 3.16 µM) 60.3% | viability, T/C (second compound 0.00949 µM, first compound 10 µM) 54.4% | viability, T/C (second compound 0.03 µM, first compound 0.0316 µM) 52.4% | viability, T/C (second compound 0.03 µM, first compound 0.1 µM) 56.2% | viability, T/C (second compound 0.03 µM, first compound 0.316 µM) 47.1% | viability, T/C (second compound 0.03 µM, first compound 1 µM) 46.3% | viability, T/C (second compound 0.03 µM, first compound 3.16 µM) 43% | viability, T/C (second compound 0.03 µM, first compound 10 µM) 39.2% | viability, T/C (second compound 0.0949 µM, first compound 0.0316 µM) 51.7% | viability, T/C (second compound 0.0949 µM, first compound 0.1 µM) 48.2% | viability, T/C (second compound 0.0949 µM, first compound 0.316 µM) 45.1% | viability, T/C (second compound 0.0949 µM, first compound 1 µM) 45.9% | viability, T/C (second compound 0.0949 µM, first compound 3.16 µM) 40.5% | viability, T/C (second compound 0.0949 µM, first compound 10 µM) 41.7% | viability, T/C (second compound 0.3 µM, first compound 0.0316 µM) 40.5% | viability, T/C (second compound 0.3 µM, first compound 0.1 µM) 38.4% | viability, T/C (second compound 0.3 µM, first compound 0.316 µM) 39% | viability, T/C (second compound 0.3 µM, first compound 1 µM) 38.1% | viability, T/C (second compound 0.3 µM, first compound 3.16 µM) 35.8% | viability, T/C (second compound 0.3 µM, first compound 10 µM) 30.4%
> 10000 nM: IC50 (curve of first compound, second compound 0.00949 µM)

Cc1cc(C)c(CNC(=O)c2cc(-c3ccc(CN4CCOCC4)cc3)cc3c2cnn3C2CCCC2)c(=O)[nH]1
8670 nM and > 10000 nM: IC50 (curve of compound)
inactive: viability, T/C (compound 0.0316 µM) 92.8% and 89.3% and 93.7% | viability, T/C (compound 0.1 µM) 102% and 98.3% and 89.8% | viability, T/C (compound 0.316 µM) 101% and 100% and 96.4% | viability, T/C (compound 1 µM) 84.1% and 93.3% and 95.8% | viability, T/C (compound 3.16 µM) 85.2% and 88.7% and 77.4% | viability, T/C (compound 10 µM) 44.7% and 56.8% and 52.6%
